Converted amounts (≈) assume the structure as drawn. One block for each compound: values may come before it.
How the values were obtained:
Experiment in all cases: ≥ marks a high value that may be exact or a test limit, other limits are often not marked, values filed in µg/mL are converted to µM
[1] = tested on: Clostridium perfringens CICC 22949
[2] = tested on: Bacillus pumilus CMCC 63202
[3] = tested on: Salmonella enterica subsp. enterica serovar Paratyphi A CICC 21501
[4] = tested on: Geobacillus stearothermophilus CICC 20139
[5] = tested on: Serratia marcescens CICC 10187
[6] = tested on: Salmonella enterica subsp. enterica serovar Paratyphi B CICC 21495
[7] = tested on: Shigella flexneri CMCC 51571
[8] = tested on: Paenibacillus polymyxa CGMCC 4314
[9] = tested on: Bacillus subtilis ATCC 9943
[10] = tested on: Salmonella typhimurium CMCC 51005
[11] = tested on: Bacillus megaterium CICC 10448
[12] = tested on: Micrococcus luteus CMCC 28000
[13] = tested on: Salmonella enterica subsp. enterica serovar Enteritidis CICC 21527
[14] = tested on: Alicyclobacillus acidoterrestris CICC 10374
[15] = tested on: Escherichia coli ATCC 25922
[16] = tested on: Clostridioides difficile CICC 22951
[17] = tested on: Staphylococcus aureus CMCC 26003
[18] = tested on: Bacillus cereus AS1.1846
[19] = tested on: Proteus mirabilis CMCC 49005
[20] = tested on: Clostridium sporogenes CICC 10385
[21] = tested on: Pseudomonas fluorescens AS1.1802
[22] = tested on: Fusarium haematococcum
[23] = tested on: Aerococcus viridans
[24] = tested on: Escherichia coli D22
[25] = tested on: Alternaria brassicicola
[26] = tested on: Escherichia coli D31
[27] = tested on: Trichoderma viride
[28] = tested on: Pediococcus acidilactici
[29] = tested on: Fusarium culmorum
[30] = tested on: Salmonella typhimurium
[31] = tested on: Micrococcus luteus
[32] = tested on: Botrytis cinerea
[33] = tested on: Ascochyta pisi
[34] = tested on: Escherichia coli 1106
[35] = tested on: Pectobacterium carotovorum
[36] = tested on: Fusarium oxysporum
[37] = tested on: Pseudomonas aeruginosa
[38] = tested on: Enterobacter cloacae
[39] = tested on: Neurospora crassa
[40] = tested on: Bacillus subtilis
[41] = tested on: Bacillus megaterium
[42] = tested on: Klebsiella pneumoniae
[43] = tested on: Listeria monocytogenes ATCC 19111
[44] = tested on: Staphylococcus aureus ATCC 29213
[45] = tested on: Pseudomonas aeruginosa NCDC 0105
[46] = tested on: Escherichia coli MTCC 0723
[47] = tested on: Staphylococcus aureus NCDC 0111
[48] = tested on: Bacillus cereus NCDC 0240
[49] = tested on: Salmonella enterica subsp. enterica serovar Typhimurium ATCC 14028
[50] = tested on: Acinetobacter johnsonii NCDC 0072
[51] = tested on: Pseudomonas aeruginosa ATCC 27853
[52] = tested on: Enterococcus faecalis V583
[53] = tested on: Escherichia coli O111
[54] = tested on: Staphylococcus sciuri
[55] = tested on: Rothia nasimurium

- MIC [1]: 30.6 µM (≈ 32 µg/mL)
- MIC [2]: 15.3 µM (≈ 16 µg/mL)
- MIC [3]: 15.3 µM (≈ 16 µg/mL)
- MIC [4]: 30.6 µM (≈ 32 µg/mL)
- MIC [5]: 15.3 µM (≈ 16 µg/mL)
- MIC [6]: 15.3 µM (≈ 16 µg/mL)
- MIC [7]: 30.6 µM (≈ 32 µg/mL)
- MIC [8]: 15.3 µM (≈ 16 µg/mL)
- MIC [9]: 15.3 µM (≈ 16 µg/mL)
- MIC [10]: 30.6 µM (≈ 32 µg/mL)
- MIC [11]: 15.3 µM (≈ 16 µg/mL)
- MIC [12]: 15.3 µM (≈ 16 µg/mL)
- MIC [13]: 15.3 µM (≈ 16 µg/mL)
- MIC [14]: 15.3 µM (≈ 16 µg/mL)
- MIC [15]: 61.3 µM (≈ 64 µg/mL)
- MIC [16]: 30.6 µM (≈ 32 µg/mL)
- MIC [17]: 15.3 µM (≈ 16 µg/mL)
- MIC [18]: 15.3 µM (≈ 16 µg/mL)
- MIC [19]: 15.3 µM (≈ 16 µg/mL)
- MIC [20]: 30.6 µM (≈ 32 µg/mL)
- MIC [21]: 15.3 µM (≈ 16 µg/mL)
Structure (SMILES): CSCC[C@H](NC(=O)[C@H](CCCCN)NC(=O)[C@H](CCC(N)=O)NC(=O)[C@H](Cc1c[nH]c2ccccc12)NC(=O)[C@@H](N)Cc1ccccc1)C(=O)N[C@@H](CO)C(=O)N[C@@H](Cc1ccccc1)C(=O)N[C@@H](C)C(=O)O [FWQKMSFA]

- MIC [22]: 7.07 µM (≈ 15.3 µg/mL)
- MIC [23]: 0.849 µM (≈ 1.83 µg/mL)
- MIC [24]: 0.424 µM (≈ 0.917 µg/mL)
- MIC [25]: 3.54 µM (≈ 7.64 µg/mL)
- MIC [26]: 0.424 µM (≈ 0.917 µg/mL)
- MIC [27]: 3.54 µM (≈ 7.64 µg/mL)
- MIC [28]: 28.3 µM (≈ 61.1 µg/mL)
- MIC [29]: 7.07 µM (≈ 15.3 µg/mL)
- MIC [30]: 1.73 µM (≈ 3.74 µg/mL)
- MIC [31]: 1.73 µM (≈ 3.74 µg/mL)
- MIC [32]: 1.73 µM (≈ 3.74 µg/mL)
- MIC [33]: 14.1 µM (≈ 30.6 µg/mL)
- MIC [34]: 0.849 µM (≈ 1.83 µg/mL)
- MIC [35]: 28.3 µM (≈ 61.1 µg/mL)
- MIC [36]: 28.3 µM (≈ 61.1 µg/mL)
- MIC [37]: 28.3 µM (≈ 61.1 µg/mL)
- MIC [38]: 1.73 µM (≈ 3.74 µg/mL)
- MIC [39]: 3.54 µM (≈ 7.64 µg/mL)
- MIC [40]: 28.3 µM (≈ 61.1 µg/mL)
- MIC [41]: 3.54 µM (≈ 7.64 µg/mL)
- MIC [42]: 1.73 µM (≈ 3.74 µg/mL)
Structure (SMILES): CC[C@H](C)[C@H](NC(=O)[C@@H](NC(=O)[C@@H]1CCCN1C(=O)[C@@H](NC(=O)[C@@H]1CCCN1C(=O)[C@@H](N)CCCCN)C(C)C)[C@@H](C)CC)C(=O)N[C@@H](Cc1ccc(O)cc1)C(=O)N[C@H]1CSSC[C@@H](C(=O)N[C@@H](CCC(N)=O)C(=O)N[C@@H](CCCN=C(N)N)C(=O)N[C@@H](CCSC)C(=O)O)NC(=O)[C@H](CCCCN)NC(=O)CNC(=O)[C@H]([C@@H](C)O)NC(=O)[C@H](CCCN=C(N)N)NC(=O)[C@H](CCCN=C(N)N)NC(=O)[C@H](CC(N)=O)NC1=O [KPVPIIYCNRRTGKCQRM]

- MIC [43]: 1.5 µM (≈ 2.63 µg/mL)
- MIC [44]: 0.8 µM (≈ 1.4 µg/mL)
- MIC [45]: ≥ 200 µM
- MIC [46]: ≥ 50 µM
- MIC [47]: 12.5 µM (≈ 21.9 µg/mL)
- MIC [48]: ≥ 50 µM
- MIC [49]: 3 µM (≈ 5.26 µg/mL)
- MIC [50]: 25 µM (≈ 43.9 µg/mL)
- MIC [51]: 200 µM (≈ 351 µg/mL)
Structure (SMILES): CC[C@H](C)[C@H](NC(=O)[C@H](CO)NC(=O)[C@H](Cc1c[nH]c2ccccc12)NC(=O)[C@@H]1CCCN1C(=O)[C@@H](NC(=O)[C@H](C)N)[C@@H](C)CC)C(=O)N[C@@H](Cc1c[nH]c2ccccc12)C(=O)N[C@@H](Cc1c[nH]c2ccccc12)C(=O)N[C@@H](Cc1cnc[nH]1)C(=O)N[C@@H](CC(C)C)C(=O)N[C@@H](CC(C)C)C(=O)N[C@@H](Cc1ccccc1)C(=O)N[C@@H](CCCCN)C(=O)NCC(=O)O [AIPWSIWWHLLFKG]

- MIC [52]: ≥ 133 µM
Structure (SMILES): CC[C@H](C)[C@H](N)C(=O)N[C@H](C(=O)N[C@@H](CO)C(=O)N[C@@H](CO)C(=O)N[C@@H](CCSC)C(=O)N[C@@H](Cc1ccccc1)C(=O)N[C@H](C(=O)N[C@@H](CO)C(=O)N[C@@H](C)C(=O)O)C(C)C)C(C)C [IVSSMFVSA]

- MIC [23]: ≥ 32.9 µM
- MIC [53]: ≥ 82.3 µM
- MIC [44]: 16.5 µM (≈ 10 µg/mL)
- MIC [37]: 82.3 µM (≈ 50 µg/mL)
- MIC [54]: ≥ 82.3 µM
- MIC [15]: 82.3 µM (≈ 50 µg/mL)
- MIC [55]: 16.5 µM (≈ 10 µg/mL)
- MIC [42]: 82.3 µM (≈ 50 µg/mL)
Structure (SMILES): N[C@@H](CC(=O)O)C(=O)N[C@@H](CCC(=O)O)C(=O)N[C@@H](CC(=O)O)C(=O)N[C@@H](CC(=O)O)C(=O)N[C@@H](CC(=O)O)C(=O)O [DEDDD]

— DBAASP
